Measured values taken from US7459581B2, “Anti-bacterial compounds” (Givaudan S.A., priority 2004, dated 2008).

What was measured:
C. xerosis DSM 20170 [1] = assay: Bacteriostatic activity (MIC), microtiter turbidity; assay type: cell-based; details: Corynebacterium xerosis, DSM20170, 24 h, read-out: MIC C. xerosis DSM 20170
Text: (§1) The different axilla bacteria are isolated from the human axilla according to techniques known in the art, in particular according to standard microbiological practice. They are taxonomically identified by cell morphology, gram-reaction and biochemical tests included in the Api coryne test kit (BioMerieux, France). Strain Staphylococcus epidermidis Ax25 is identified by fatty acid methyl ester analysis (FAME; German type strain collection DSMZ, Germany).
(§2) The strains are maintained on Tryptic soy broth plates, this standard medium being supplemented with 5 g per litre of Polyoxyethylene Sorbitan Monooleate (Tween™ 80). Plates are incubated at 36° C. for a period 48 hours. The bacteria are then swabbed from the plates and suspended in 4 ml of Müller-Hinton broth supplemented with 100 mg of Tween™ 80 per litre (MH-Tween™) and incubated again at 36° C. for 16 hours. Following incubation, the bacterial suspensions are diluted in MH-Tween™ to obtain a final cell density of 10^7 colony forming units per ml. These diluted suspensions of the different test organisms are distributed to different columns of a microtiter plate, 100 μl per well. The test compounds are dissolved in dimethylsulfoxide (DMSO) at various test concentrations and 2.5 μl of these different DMSO solutions are added to the different wells of the test plates. The plates are covered with plastic films and incubated for 24 h at 36° C. with shaking at 250 rpm. The turbidity developing in the microtiter plates is then examined after 24 h to determine microbial growth.

Escherichia coli DSM 682 [2] = assay: as above; assay type: cell-based; details: DSM682, 24 h, read-out: MIC Escherichia coli DSM 682
Text: as §1, §2

S. epidermidis Ax 25 [3] = assay: as above; assay type: cell-based; details: Staphylococcus epidermidis, AX25, 24 h, read-out: MIC S. epidermidis Ax 25
Text: as §1, §2

[4] = test system: Staphylococcus aureus DSM 799; assay: as above; assay type: cell-based; details: DSM799, 24 h, read-out: MIC Staphylococcus aureus DSM 799
Text: as §1, §2

Corynebacterium Ax 7 [5] = assay: as above; assay type: cell-based, Corynebacterium group G; details: AX7, 24 h, read-out: MIC Corynebacterium Ax 7
Text: as §1, §2

Corynebacterium Ax 15 [6] = assay: as above; assay type: cell-based, Corynebacterium jeikeium; details: AX15, 24 h, read-out: MIC Corynebacterium Ax 15
Text: as §1, §2

S. epidermidis Ax 25 [7] = assay: Bactericidal activity (MBC), 60 min contact; assay type: cell-based, Staphylococcus epidermidis; details: complete kill of inoculum after 60 min incubation; regrowth read after 24 h at 36° C.
Text: as §1, with “Germany). Escherichia coli DSM 682, Staphylococcus aureus DSM 799, and Corynebacterium xerosis DSM 20170 are obtained from the German-type strain collection.” for “Germany).”
as §2, with “growth. The minimal concentration of test compounds inhibiting the growth of an organism by at least 80% is determined as the minimal inhibitory concentration (MIC).” for “growth.”
(§3) The bactericidal effects of the compounds of the present invention are further tested. The bacteria are grown, harvested and diluted under the same conditions as described in example 10 above and added to microtiter plates (100 μl per well), each well containing 2.5 μl of the different DMSO solutions as described above. After 60 min incubation, 0.5 μl of the bacterial culture from each well (corresponding to 5×10^3 cfu in the control treatment) is transferred to a fresh microtiter plate which contained 100 μl per well of fresh medium. The plates are covered with plastic films and incubated for 24 h at 36° C. with shaking at 250 rpm. The turbidity developing in the microtiter plates is then examined after 24 h to determine microbial growth. The minimal concentration of test compounds which completely killed the bacterial inoculum is determined as the minimal bactericidal concentration (MBC).

C. xerosis DSM 20170 [8] = assay: Bactericidal activity (MBC), 60 min contact; assay type: cell-based, Corynebacterium xerosis; details: complete kill of inoculum after 60 min incubation; regrowth read after 24 h at 36° C.
Text: as §1, with “Germany). Escherichia coli DSM 682, Staphylococcus aureus DSM 799, and Corynebacterium xerosis DSM 20170 are obtained from the German-type strain collection.” for “Germany).”
as §2, with “growth. The minimal concentration of test compounds inhibiting the growth of an organism by at least 80% is determined as the minimal inhibitory concentration (MIC).” for “growth.”
as §3

Corynebacterium Ax 7 [9] = assay: Bactericidal activity (MBC), 60 min contact; assay type: cell-based, Corynebacterium group G; details: complete kill of inoculum after 60 min incubation; regrowth read after 24 h at 36° C.
Text: as §1, with “Germany). Escherichia coli DSM 682, Staphylococcus aureus DSM 799, and Corynebacterium xerosis DSM 20170 are obtained from the German-type strain collection.” for “Germany).”
as §2, with “growth. The minimal concentration of test compounds inhibiting the growth of an organism by at least 80% is determined as the minimal inhibitory concentration (MIC).” for “growth.”
as §3

Corynebacterium Ax 15 [10] = assay: Bactericidal activity (MBC), 60 min contact; assay type: cell-based, Corynebacterium jeikeium; details: complete kill of inoculum after 60 min incubation; regrowth read after 24 h at 36° C.
Text: as §1, with “Germany). Escherichia coli DSM 682, Staphylococcus aureus DSM 799, and Corynebacterium xerosis DSM 20170 are obtained from the German-type strain collection.” for “Germany).”
as §2, with “growth. The minimal concentration of test compounds inhibiting the growth of an organism by at least 80% is determined as the minimal inhibitory concentration (MIC).” for “growth.”
as §3

Escherichia coli DSM 682 [11] = assay: Bactericidal activity (MBC), 60 min contact; assay type: cell-based; details: complete kill of inoculum after 60 min incubation; regrowth read after 24 h at 36° C.
Text: as §1, with “Germany). Escherichia coli DSM 682, Staphylococcus aureus DSM 799, and Corynebacterium xerosis DSM 20170 are obtained from the German-type strain collection.” for “Germany).”
as §2, with “growth. The minimal concentration of test compounds inhibiting the growth of an organism by at least 80% is determined as the minimal inhibitory concentration (MIC).” for “growth.”
as §3

[12] = test system: Staphylococcus aureus DSM 799; assay: Bactericidal activity (MBC), 60 min contact; assay type: cell-based; details: complete kill of inoculum after 60 min incubation; regrowth read after 24 h at 36° C.
Text: as §1, with “Germany). Escherichia coli DSM 682, Staphylococcus aureus DSM 799, and Corynebacterium xerosis DSM 20170 are obtained from the German-type strain collection.” for “Germany).”
as §2, with “growth. The minimal concentration of test compounds inhibiting the growth of an organism by at least 80% is determined as the minimal inhibitory concentration (MIC).” for “growth.”
as §3

Aspergillus niger = assay: Antifungal (fungistatic) activity, MIC; assay type: cell-based; details: growth inhibition by at least 80%, 48 h, Saboureaud liquid medium, 10^5 cfu per ml
Procedure: as §2, with “growth. The minimal concentration of test compounds inhibiting the growth of an organism by at least 80% is determined as the minimal inhibitory concentration (MIC).” for “growth.”
(§4) The fungistatic effects of the compounds of the present invention are tested against the standard strains Candida albicans and Aspergillus niger. The strains are maintained on Potato dextrose agar plates. Plates are incubated at 30° C. for a period of 72 hours. The fungal inoculum is then swabbed from the plates and suspended in Saboureaud liquid medium and incubated again at 30° C. for 24 hours in the case of C. albicans. For A. niger the inoculum containing the fungal spores is directly harvested from the agar plates and suspended in distilled water. The inoculum is then diluted in Saboureaud liquid medium to obtain a final cell density of 10^5 colony forming units per ml. The test for fungistatic activity using differently concentrated DMSO stock solutions in microtiter plates is then conducted as described in example 10 for the bacteriostatic activity. The turbidity developing in the microtiter plates is then examined after 48 h to determine fungal growth. The minimal concentration of test compounds inhibiting the growth of an organism by at least 80% is determined as the minimal inhibitory concentration (MIC).

Candida albicans = assay: Antifungal (fungistatic) activity, MIC; assay type: cell-based; details: growth inhibition by at least 80%, 48 h, Saboureaud liquid medium, 10^5 cfu per ml
Procedure: as §2, with “growth. The minimal concentration of test compounds inhibiting the growth of an organism by at least 80% is determined as the minimal inhibitory concentration (MIC).” for “growth.”
as §4

CCCCCCCCC(CCCCCC)COC(=O)CN (centres unmarked) [Compound 6., 2-Hexyl-decyloxycarbonylmethyl-ammonium chloride]
MIC (C. xerosis DSM 20170 [1]): 10 µg/mL | MIC (Escherichia coli DSM 682 [2]): 20 µg/mL | MIC (S. epidermidis Ax 25 [3]): 5 µg/mL | MIC [4]: 20 µg/mL | MIC (Corynebacterium Ax 7 [5]): 5 µg/mL | MIC (Corynebacterium Ax 15 [6]): 5 µg/mL | MBC S. epidermidis Ax 25 (S. epidermidis Ax 25 [7]): 0.002 % (weight/volume) | MBC C. xerosis DSM 20170 (C. xerosis DSM 20170 [8]): 0.002 % (weight/volume) | MBC Corynebacterium Ax 7 (Corynebacterium Ax 7 [9]): 0.0005 % (weight/volume) | MBC Corynebacterium Ax 15 (Corynebacterium Ax 15 [10]): 0.0005 % (weight/volume) | MBC Escherichia coli DSM 682 (Escherichia coli DSM 682 [11]): 0.016 % (weight/volume) | MBC Staphylococcus aureus DSM 799 [12]: 0.004 % (weight/volume) | MIC A. niger (Aspergillus niger): 0.002 % (weight/volume) | MIC C. albicans (Candida albicans): 0.0156 % (weight/volume)
